Series [1] has as its target T1, NEP (Homo sapiens, UniProt P08473). In words: In vitro enzyme inhibition assay, human NEP (Assay 1). The series is classed as biochemical. The arrangement: purchased R&D Systems 1182-ZN. The conditions noted are these: read-out: human pKi (converted). On the procedure:
(§1) The inhibitory activities at human and rat neprilysin (EC 3.4.24.11; NEP) were determined using in vitro assays as described below.
Recombinant human NEP was obtained commercially (R&D Systems, Minneapolis, Minn., catalog number 1182-ZN). The fluorogenic peptide substrate Mca-D-Arg-Arg-Leu-Dap-(Dnp)-OH (Medeiros et al. (1997) Braz. J. Med. Biol. Res. 30:1157-62; Anaspec, San Jose, Calif.) was used.
(§2) The assays were performed in 384-well white opaque plates at 37° C. using the fluorogenic peptide substrate at a concentration of 10 μM in Assay Buffer (50 mM HEPES, pH 7.5, 100 mM NaCl, 0.01% polyethylene glycol sorbitan monolaurate (Tween-20), 10 μM ZnSO4).
(§3) Test compounds were assayed over the range of concentrations from 10 μM to 20 pM. Test compounds were added to the enzyme and incubated for 30 minute at 37° C. prior to initiating the reaction by the addition of substrate. Reactions were terminated after 20 minutes of incubation at 37° C. by the addition of glacial acetic acid to a final concentration of 3.6% (v/v).
(§4) Plates were read on a fluorometer with excitation and emission wavelengths set to 320 nm and 405 nm, respectively. Inhibition constants were obtained by nonlinear regression of the data using the equation (GraphPad Software, Inc., San Diego, Calif.): v=v0/[1+(I/K′)] where v is the reaction rate, v0 is the uninhibited reaction rate, I is the inhibitor concentration and K′ is the apparent inhibition constant.
Target sequence in this assay (P08473 52-750 limits assumed): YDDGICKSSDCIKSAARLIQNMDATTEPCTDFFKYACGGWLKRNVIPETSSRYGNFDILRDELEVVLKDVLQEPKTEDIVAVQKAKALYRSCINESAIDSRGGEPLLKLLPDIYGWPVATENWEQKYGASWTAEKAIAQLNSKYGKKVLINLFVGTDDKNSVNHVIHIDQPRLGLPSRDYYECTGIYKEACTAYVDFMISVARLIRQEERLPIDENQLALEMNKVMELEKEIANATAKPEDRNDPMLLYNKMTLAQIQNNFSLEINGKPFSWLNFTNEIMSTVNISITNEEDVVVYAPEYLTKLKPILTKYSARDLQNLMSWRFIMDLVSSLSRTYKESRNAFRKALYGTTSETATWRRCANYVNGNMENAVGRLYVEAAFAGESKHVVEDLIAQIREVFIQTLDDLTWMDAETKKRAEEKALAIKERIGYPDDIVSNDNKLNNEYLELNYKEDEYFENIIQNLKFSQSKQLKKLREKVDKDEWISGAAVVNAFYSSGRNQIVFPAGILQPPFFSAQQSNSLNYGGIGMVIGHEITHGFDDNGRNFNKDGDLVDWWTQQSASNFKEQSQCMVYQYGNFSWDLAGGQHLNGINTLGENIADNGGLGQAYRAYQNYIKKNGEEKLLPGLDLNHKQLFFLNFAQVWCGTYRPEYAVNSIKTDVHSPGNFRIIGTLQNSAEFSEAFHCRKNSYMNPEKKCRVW

Series [2] in a line: IV/PO pharmacokinetic study in dogs (Assay 3). The series is classed as in vivo. The note with it: male, beagle, plasma, dog, read-out: AUClast Mean. The method, then:
(§5) Each rat or dog pharmacokinetic study began with formulation of the test compound. Appropriate masses of each test compound were added into a volume of vehicle (e.g. 5% sodium bicarbonate, 5% dextrose in water) such that the final concentration of each compound was appropriate to be dosed at 2 mL/kg. Although a homogenous suspension were acceptable for oral dosing, intravenous dosing solutions were sterile-filtered (0.2 μm) prior to dosing to ensure no particulates were administered.
In the dog study, male beagle dogs (3 per route) housed at Agilux Laboratories (Worcester, Mass.) and weighing between 7-12 kg received either a single oral gavage or a single intravenous (via indwelling catheter) dose of the dosing solution. The final dose was typically 0.1-2 mg/kg. Serial blood samples were harvested via direct venipuncture at 3 minutes, 15 minutes, 30 minutes, 1 hour, 2 hours, 4 hours, 6 hours, 8 hours, 12 hours, and 24 hours post-dose. All samples were collected manually into microtainer tubes containing sodium fluoride, potassium oxalate and paraoxon, and were processed to plasma by refrigerated centrifugation.
(§6) Plasma samples were extracted with 3 volumes of MeCN containing a suitable internal standard. Extracts were reconstituted into 3 volumes of water containing 1% formic acid, and analyzed via HPLC-coupled MS/MS. Plasma concentration-time data were analyzed using the Phoenix software (Pharsight Corp., St. Louis, Mo.) to calculate pharmacokinetic parameters.

Series [3] in a line: Renal excretion in male beagle dogs (Assay 4). The class given is in vivo. The note with it: dog, IV 1.0 mg/kg. On the procedure: An important factor for insuring appropriate long term drug dosing and correct steady-state drug concentrations in patients is drug clearance. In general, decreased drug clearance results in higher drug concentrations and greater drug effects.
Male beagle dogs (N=3), having body weights of 9.58-10.42 kg, received an IV dose of 1.0 mg/kg of Compound 1. Compound 1 was formulated in 5% NaHCO3 in D5W. The dogs were fasted overnight and pretreated with pentagastrin (60 μg/mL, 0.1 mL/kg, IM) approximately 30 minutes prior to dose administration to stimulate gastric secretion. Food was returned approximately 4 hours postdose. Urine samples were collected surrounded by cold ice packs during the collection period. After 24 hours, the sample weight was recorded, the sample was thoroughly mixed, and aliquots were obtained and frozen (−80° C.) prior to bioanalysis.
Dog urine concentrations of Compound 1 were determined by LC/MS/MS. Urine study samples (diluted in plasma) were vortexed and 50 μL was placed in a 96-well plate. The samples were extracted with acetonitrile with internal standard chrysin. The extract was centrifuged and supernatant was transferred to a new 96-well plate and diluted 1 part sampe in 4 parts water with 0.2% formic acid. Samples (12 μL) were injected on a Waters Acquity UPLC BEH C18 (50×2.1 mm, 1.7 μm) column with a flow rate of 0.9 mL/min. […]

Another series concerns the target T2, Rat NEP (Rattus norvegicus, UniProt P07861).
T2 construct: leaving a viscous oily precipitate containing the enriched membrane fraction; from tissue; host or cells: kidneys of adult Sprague Dawley rats (Triton X-114 enriched membrane fraction)
T2 sequence (P07861 1-750): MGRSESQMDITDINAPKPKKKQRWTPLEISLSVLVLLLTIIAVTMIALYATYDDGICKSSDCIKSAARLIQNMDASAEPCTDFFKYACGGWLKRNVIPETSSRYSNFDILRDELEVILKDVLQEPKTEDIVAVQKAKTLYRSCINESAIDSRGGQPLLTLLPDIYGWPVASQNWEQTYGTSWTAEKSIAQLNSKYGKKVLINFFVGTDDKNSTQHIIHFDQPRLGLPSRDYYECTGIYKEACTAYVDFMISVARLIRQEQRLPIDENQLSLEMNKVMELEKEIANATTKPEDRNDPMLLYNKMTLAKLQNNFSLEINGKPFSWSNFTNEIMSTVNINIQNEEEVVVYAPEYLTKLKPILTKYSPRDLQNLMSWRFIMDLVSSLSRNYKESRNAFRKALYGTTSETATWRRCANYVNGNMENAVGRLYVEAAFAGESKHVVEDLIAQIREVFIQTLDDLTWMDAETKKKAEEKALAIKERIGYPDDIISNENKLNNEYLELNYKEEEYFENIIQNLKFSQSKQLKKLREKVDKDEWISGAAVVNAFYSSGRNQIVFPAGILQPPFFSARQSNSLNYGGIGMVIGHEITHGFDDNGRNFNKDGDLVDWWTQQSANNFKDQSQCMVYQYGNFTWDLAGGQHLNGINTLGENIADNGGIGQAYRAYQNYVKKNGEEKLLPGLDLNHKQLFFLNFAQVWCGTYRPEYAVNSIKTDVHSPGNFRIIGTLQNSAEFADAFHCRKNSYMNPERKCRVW
The experiment in a line: In vitro enzyme inhibition assay, rat NEP (Assay 1). The note with it: NEP from rat kidneys; read-out: rat pKi (converted). The class given is biochemical. The method, then: as §1
Rat NEP was prepared from the kidneys of adult Sprague Dawley rats. Whole kidneys were washed in cold phosphate buffered saline (PBS) and brought up in ice-cold lysis buffer (1% Triton X-114, 150 mM NaCl, 50 mM tris(hydroxymethyl) aminomethane (Tris) pH 7.5; Bordier (1981) J. Biol. Chem. 256: 1604-1607) in a ratio of 5 mL of buffer for every gram of kidney. Samples were homogenized on ice using a polytron hand held tissue grinder. Homogenates were centrifuged at 1000×g in a swinging bucket rotor for 5 minutes at 3° C. The pellet was resuspended in 20 mL of ice cold lysis buffer and incubated on ice for 30 minutes. Samples (15-20 mL) were then layered onto 25 mL of ice-cold cushion buffer (6% w/v sucrose, 50 mM pH 7.5 Tris, 150 mM NaCl, 0.06%, Triton X-114), heated to 37° C. for 3-5 minutes and centrifuged at 1000×g in a swinging bucket rotor at room temperature for 3 minutes. The two upper layers were aspirated off, leaving a viscous oily precipitate containing the enriched membrane fraction. Glycerol was added to a concentration of 50% and samples were stored at −20° C. Protein concentrations were quantitated using a BCA detection system with bovine serum albumin (BSA) as a standard.
as §2, §3, §4

A short description of series [4]: IV/PO pharmacokinetic study in rats (Assay 3). The class given is in vivo. The note with it: male, Sprague-Dawley, plasma; rat, IV; analyte = compound dosed (active metabolite); read-out: AUClast Mean. On the procedure:
as §5
In the rat study, pre-cannulated male Sprague-Dawley rats (3 per route) between 8 and 10 weeks of age were obtained from Harlan Laboratories (Indianapolis, Ind.). Rats received either a single oral gavage or a single intravenous (via lateral tail vein) dose of the dosing solution. The final dose was typically 0.5-3 mg/kg. Serial blood samples were harvested via the cannula implanted in the jugular vein at 3 minutes, 15 minutes, 30 minutes, 1 hour, 2 hours, 4 hours, 6 hours, and 24 hours post-dose. Sampling was performed either manually or using automated blood samplers. Samples were collected into microtainer tubes containing sodium fluoride, potassium oxalate and paraoxon, and were processed to plasma by refrigerated centrifugation.
as §6

The target of series [5] is T1, NEP. The note with it: reported in U.S. Patent Application Publication No. 2013/0109639; cited from earlier work.
Target sequence in this assay (P08473 whole entry): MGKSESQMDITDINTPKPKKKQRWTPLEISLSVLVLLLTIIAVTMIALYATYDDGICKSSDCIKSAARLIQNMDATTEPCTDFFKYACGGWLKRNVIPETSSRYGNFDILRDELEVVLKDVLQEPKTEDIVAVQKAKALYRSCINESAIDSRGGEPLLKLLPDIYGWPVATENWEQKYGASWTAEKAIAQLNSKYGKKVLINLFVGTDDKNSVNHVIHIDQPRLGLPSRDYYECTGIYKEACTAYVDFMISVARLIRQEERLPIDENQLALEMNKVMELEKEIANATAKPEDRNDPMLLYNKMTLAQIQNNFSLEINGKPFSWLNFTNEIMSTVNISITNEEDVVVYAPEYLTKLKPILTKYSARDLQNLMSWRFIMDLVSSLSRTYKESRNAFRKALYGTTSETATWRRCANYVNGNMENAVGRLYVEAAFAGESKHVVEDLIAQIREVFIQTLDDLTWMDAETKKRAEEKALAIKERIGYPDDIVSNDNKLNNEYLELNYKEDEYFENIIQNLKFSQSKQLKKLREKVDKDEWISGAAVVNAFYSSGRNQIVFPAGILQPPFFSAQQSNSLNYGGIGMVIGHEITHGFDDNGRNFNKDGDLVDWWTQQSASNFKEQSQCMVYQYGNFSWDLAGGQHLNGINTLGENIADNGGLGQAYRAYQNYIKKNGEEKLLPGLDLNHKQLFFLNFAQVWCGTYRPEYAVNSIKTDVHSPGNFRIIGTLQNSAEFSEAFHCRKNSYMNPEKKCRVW
Series [6] can be described thus: Exposure of crystals to ambient conditions. The class given is physicochemical.

The values below come from patent US9868698B2, “(2S,4R)-5-(5′-chloro-2′-fluorobiphenyl-4-yl)-4-(ethoxyoxalylamino)-2-hydroxymethyl-2-methylpentanoic acid” (THERAVANCE BIOPHARMA R&D IP, LLC, priority 2015, dated 2018).

Consider `CCOC(=O)C(=O)N[C@H](Cc1ccc(-c2cc(Cl)ccc2F)cc1)C[C@@](C)(CO)C(=O)O` [Compound 1, (2S,4R)-5-(5′-Chloro-2′-fluorobiphenyl-4-yl)-4-(ethoxyoxalylamino)-2-hydroxymethyl-2-methylpentanoic Acid], for which the Ki on NEP [1] and on Rat NEP was 0.794 nM throughout. Besides, in series [2] (PO, analyte = compound dosed (prodrug)), the AUC(0-t) was 3.7 ng·h/mL. In addition, the “Amount of Compound 1 Excreted in Urine over Collection Period (0-24 hrs) Mean” value in series [3] was found to be 28.9 µg. Also, the “Urinary Excretion (approximate % of administred dose excreted in urine) Mean” value in series [3] (0-24 hrs, 1 mg/kg) is reported as 0.284%.

Take `C[C@@](CO)(C[C@@H](Cc1ccc(-c2cc(Cl)ccc2F)cc1)NC(=O)C(=O)O)C(=O)O` [Comparison Compound C2, (2S,4R)-5-(5′-Chloro-2′-fluorobiphenyl-4-yl)-2-hydroxymethyl-2-methyl-4-(oxalylamino)pentanoic Acid]: the AUC(0-t) in series [4] came to 16000 ng·h/mL; in series [2] (IV, analyte = compound dosed (active metabolite)), 1970 ng·h/mL. The pKi (usually −log10 of the Ki, conventionally taken in molar units) at NEP at NEP [5] is at least 9. The Ki at NEP [1] was 0.631 nM; on Rat NEP it was 0.316 nM.

Consider `CCOC(=O)C(=O)N[C@H](Cc1ccc(-c2cc(Cl)ccc2F)cc1)C[C@@](C)(CO)C(=O)O` [Compound 1″, L-Arginine (2S,4R)-5-(5′-Chloro-2′-fluoro-[1,1′-bipheny]-4-yl)-4-(2-ethoxy-2-oxoacetamido)-2-(hydroxymethyl)-2-methylpentanoate], for which the “behaviour of crystals at ambient conditions (in words)” value in series [6] is “slow deliquescence”.
